How the values were obtained:
[1] = system: Human neutrophils (LTB4 chemotaxis); assay: Modified Boyden Chamber Chemotaxis (LTB4-induced neutrophil chemotaxis); assay type: cell-based; settings: 3×10^-8 M LTB4, 40-90 minute incubation at 37° C.
Excerpt: (§1) Neutrophils were purified from venous blood of normal human donors using standard techniques of dextran sedimentation, centrifugation on Ficoll-paque® (Pharmacia) or Histopaque® sterile solution (Sigma) and hypotonic lysis of erythrocytes (Boyum, A., Isolation of Leukocytes From Human Blood: Further Observations. Scand. J. Lab. Clin. Invest., 21 (Suppl. 97): 31, 1968). The purity of isolated neutrophils was >95%.
Human neutrophils were isolated from citrated peripheral blood using standard techniques of dextran sedimentation, followed by centrifugation on Histopaque® sterile solution (Sigma) or Ficoll-paque® (Pharmacia) and hypotonic lysis of erythrocytes. A final cell suspension of 3.4×10^6 neutrophils/ml of HEPES-buffered Hanks' balanced salt solution (HBSS, pH 7.3) was added to the upper well (0.8 ml) of a modified Boyden chamber (blind well). The lower well (0.2 ml), separated by a polycarbonate membrane (Nucleopore Corp.), contained HBSS or 3×10^-8 M LTB4 in the presence or absence of test compound. Following a 40-90 minute incubation at 37° C. in 5% CO2 -95% air, cells from the lower well were lysed and nuclei counted in a Model S-Plus-IV Coulter Counter. The number of neutrophils migrating into the lower chamber in the absence of chemoattractant was subtracted from the number of cells migrating in the presence of a chemoattractant. Inhibition of chemotaxis by test compounds was expressed as percent inhibition relative to uninhibited control.

LTB4 Receptor = target: T1, LTB4 Receptor (Homo sapiens, UniProt Q15722); assay: LTB4 Receptor Binding Assay; settings: human neutrophils, 0.6×10^-9 M (3H)LTB4, 0° C., 45 minutes
T1 construct: Neutrophils were purified from venous blood of normal human donors; endogenous in cells; host or cells: human neutrophils from venous blood of normal donors (purity >95%)
T1 sequence (Q15722 whole entry): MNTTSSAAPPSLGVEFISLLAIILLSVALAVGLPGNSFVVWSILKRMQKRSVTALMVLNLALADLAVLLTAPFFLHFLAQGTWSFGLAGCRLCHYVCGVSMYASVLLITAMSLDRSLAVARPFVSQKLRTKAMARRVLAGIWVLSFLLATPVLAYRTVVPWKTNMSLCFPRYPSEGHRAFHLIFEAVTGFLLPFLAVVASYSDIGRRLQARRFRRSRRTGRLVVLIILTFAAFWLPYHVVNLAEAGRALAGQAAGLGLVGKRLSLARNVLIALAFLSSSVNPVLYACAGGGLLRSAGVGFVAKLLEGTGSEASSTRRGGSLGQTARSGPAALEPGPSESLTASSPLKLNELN
Method: as §1, with “1968).” for “1968). The purity of isolated neutrophils was >95%.”
Neutrophils (4- 6×10^6) in 1 ml Hanks' balanced salt solution (HBSS) containing 10 mM HEPES buffer, pH 7.4 and 20 mM nordihydroguaiaretic acid were incubated with 0.6×10^-9 M (^3 H) LTB4 in the presence or absence of test compounds. The incubation was carried out at 0° C. for 45 minutes and terminated by adding 5 ml of ice-cold HBSS followed by rapid filtration of the incubation mixture under vacuum through GF/C glass fiber filters. The filters were further washed with 10 ml HBSS and radioactivity was determined. Specific binding was defined as the difference between total binding and nonspecific binding which was not displaced by 10^-7 M unlabeled LTB4. All data refer to specific binding.

Compound	IC50 [1]	IC50 (LTB4 Receptor)
CCCc1c(OCCCOc2ccc(C(C)=O)c(OC)c2CCC)ccc2c1OC(C(=O)O)CC2 (centres unmarked) [Example 1(b), 7-[3-(4-acetyl-3-methoxy-2-propylphenoxy)propoxy]-3,4-dihydro-8-propyl-2H-1-benzopyran-2-carboxylic acid, reference compound]	1050 nM	–
CCCc1c(OCCCOc2ccc(-c3cscn3)c(OC)c2CC2CC2)ccc2c1OC(C(=O)NS(=O)(=O)c1ccccc1)CC2 (centres unmarked) [Example 9, Benzo sulfonimide of 7-[3-[2-(Cyclopropylmethyl)-3-methoxy-4-(4-thiazolyl)phenoxy]propoxy]-3,4-dihydro-8-propyl-2H-1-benzopyran-2-carboxylic acid]	53 nM	5.5 nM
CCCc1c(OCCCOc2ccc(-c3cscn3)c(OC)c2CC2CC2)ccc2c1OC(CCC(=O)NS(=O)(=O)c1ccccc1)CC2 (centres unmarked) [Example 15, Benzo sulfonimide of 3,4-Dihydro-7-[3-[3-methoxy-2-cycloproplymethyl-4-(4-thiazolyl)phenoxy]propoxy]-8-propyl-2H-1-benzopyran-2-propionic acid]	66 nM	4.3 nM
